What was measured:
[1] = Liquid-liquid partition coefficients between FC-72 and organic solvents (partitioning followed by HPLC analysis); format: physicochemical; conditions: room temperature; for Partition coefficient FC-72/THF (P = cfluorous phase/corganic phase): 50/50 (v/v) FC-72/THF; for Partition coefficient FC-72/methanol (P = cfluorous phase/corganic phase): 50/50 (v/v) FC-72/methanol; for Partition coefficient FC-72/toluene (P = cfluorous phase/corganic phase): 50/50 (v/v) FC-72/toluene
Method: Liquid-liquid partition coefficients for all six phosphines between FC-72 and three organic solvents (methanol, THF, and toluene) were also measured. The procedure involved a simple partitioning followed by HPLC analysis.

SMILES | melting point [°C] | Partition coefficient FC-72/THF (P = cfluorous phase/corganic phase) [1] | Partition coefficient FC-72/methanol (P = cfluorous phase/corganic phase) [1] | Partition coefficient FC-72/toluene (P = cfluorous phase/corganic phase) [1]
FC(F)(F)C(F)(F)C(F)(F)C(F)(F)C(F)(F)C(F)(F)CCc1ccc(P(c2ccc(CCC(F)(F)C(F)(F)C(F)(F)C(F)(F)C(F)(F)C(F)(F)F)cc2)c2ccc(CCC(F)(F)C(F)(F)C(F)(F)C(F)(F)C(F)(F)C(F)(F)F)cc2)cc1 [Compound 1a, Tris-[4-(3,3,4,4,5,5,6,6,7,7,8,8,8-tridecafluorooctyl)phenyl]phosphane] | 49.9 to 52.4 | 0.08 | 30.03 | 0.75
FC(F)(F)C(F)(F)C(F)(F)C(F)(F)C(F)(F)C(F)(F)CCc1ccc(P(c2ccccc2)c2ccc(CCC(F)(F)C(F)(F)C(F)(F)C(F)(F)C(F)(F)C(F)(F)F)cc2)cc1 [Compound 1b, Phenyl-bis-[4-(3,3,4,4,5,5,6,6,7,7,8,8,8-tridecafluorooctyl)phenyl]phosphane] | 42.1 to 43.1 | 0.05 | 1.86 | 0.05
FC(F)(F)C(F)(F)C(F)(F)C(F)(F)C(F)(F)C(F)(F)CCc1ccc(P(c2ccccc2)c2ccccc2)cc1 [Compound 1c, Diphenyl-[4-(3,3,4,4,5,5,6,6,7,7,8,8,8-tridecafluorooctyl)phenyl]phosphane] |  | 0.02 | 0.12 | 0.05
FC(F)(F)C(F)(F)C(F)(F)C(Cc1ccc(P(c2ccc(CC(C(F)(F)F)(C(F)(F)F)C(F)(F)C(F)(F)C(F)(F)F)cc2)c2ccc(CC(C(F)(F)F)(C(F)(F)F)C(F)(F)C(F)(F)C(F)(F)F)cc2)cc1)(C(F)(F)F)C(F)(F)F [Compound 5a, Tris-[4-(3,3,4,4,5,5,5-heptafluoro-2,2-bis-trifluoromethylpentyl)phenyl]phosphane] |  | 0.51 | 18.48 | 6.84
FC(F)(F)C(F)(F)C(F)(F)C(Cc1ccc(P(c2ccccc2)c2ccc(CC(C(F)(F)F)(C(F)(F)F)C(F)(F)C(F)(F)C(F)(F)F)cc2)cc1)(C(F)(F)F)C(F)(F)F [Compound 5b, Phenyl-bis-[4-(3,3,4,4,5,5,5-heptafluoro-2,2-bis-rifluoromethylpentyl)phenyl]phosphane] |  | 1.05 | 3.34 | 0.18
FC(F)(F)C(F)(F)C(F)(F)C(Cc1ccc(P(c2ccccc2)c2ccccc2)cc1)(C(F)(F)F)C(F)(F)F [Compound 5c, Diphenyl-[4-(3,3,4,4,5,5,5-heptafluoro-2,2-bis-trifluoromethylpentyl)phenyl]phosphane] |  | 0.01 | 0.09 | 0.12

From patent publication US6727390B2, “Fluorous phosphines and phosphine oxides” (University of Pittsburgh, priority 2001, dated 2004)
